From article PMC12736255, “Reinvestigating Pyrrol-2-One-Based Compounds: From Antimicrobial Agents to Promising Antitumor Candidates” (Pharmaceuticals, 2025)

Experiments:
Test in all cases: NCI-60 single-dose screen
MOLT-4 = type: cell-based; settings: Homo sapiens; MOLT-4, 10^–5 M; read-out: GI (%)
How it was run: (§1)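 Testing used one compound level, 10^−5 M, on the NCI human cancer cell line panel (60 lines; leukemia through breast).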

SK-MEL-2 = type: cell-based; settings: Homo sapiens; SK-MEL-2, 10^–5 M; read-out: GI (%)
How it was run: as §1

SF-268 = type: cell-based; settings: Homo sapiens; SF-268, 10^–5 M; read-out: GI (%)
How it was run: as §1

786-0 = type: cell-based; settings: Homo sapiens; 786-0, 10^–5 M; read-out: GI (%)
How it was run: as §1

OVCAR-8 = type: cell-based; settings: Homo sapiens; OVCAR-8, 10^–5 M; read-out: GI (%)
How it was run: as §1

NCI-H460 = type: cell-based; settings: Homo sapiens; NCI-H460, 10^–5 M; read-out: GI (%)
How it was run: as §1

UACC-62 = type: cell-based; settings: Homo sapiens; UACC-62, 10^–5 M; read-out: GI (%)
How it was run: as §1

HOP-92 = type: cell-based; settings: Homo sapiens; HOP-92, 10^–5 M; read-out: GI (%)
How it was run: as §1

HCT-15 = type: cell-based; settings: Homo sapiens; HCT-15, 10^–5 M; read-out: GI (%)
How it was run: as §1

SW-620 = type: cell-based; settings: Homo sapiens; SW-620, 10^–5 M; read-out: GI (%)
How it was run: as §1

CCRF-CEM = type: cell-based; settings: Homo sapiens, 10^–5 M, read-out: GI (%)
How it was run: as §1

HCC-2998 = type: cell-based; settings: Homo sapiens; HCC-2998, 10^–5 M; read-out: GI (%)
How it was run: as §1

EKVX = type: cell-based, human; settings: Homo sapiens, 10^–5 M, read-out: GI (%)
Text: (§2) In the next step, all synthesized compounds were electronically submitted and accepted for testing to the National Cancer Institute (NCI) platform, for the single dose (10^−5 M) screening against a panel of 60 human tumor cell lines, representing leukemia, melanoma, and cancers of the lung, colon, central nervous system, ovary, kidney, prostate, and breast. The results are summarized in Table 2, with the best values highlighted in red (Figures S1–S14).

NCI-H226 = type: cell-based, human; settings: Homo sapiens; NCI-H226, 10^–5 M; read-out: GI (%)
Text: as §2

SF-295 = type: cell-based, human; settings: SF-295, 10^–5 M
Text: as §2

BT-549 = type: cell-based, human; settings: BT-549, 10^–5 M
Text: as §2

U251 = type: cell-based, human; settings: U251, 10^–5 M
Text: as §2

HOP-62 = type: cell-based, human; settings: HOP-62, 10^–5 M
Text: as §2

MDA-MB-468 = type: cell-based, human; settings: MDA-MB-468, 10^–5 M
Text: as §2

UO-31 = type: cell-based, human; settings: UO-31, 10^–5 M
Text: as §2

`O=C1C(Nc2ccc(I)cc2)=CC(c2ccc(Cl)cc2)N1c1ccc(I)cc1` (stereo not shown) [3c] showed an inhibition at 10 µM (MOLT-4) of 29%, an inhibition at 10 µM (SK-MEL-2) of 43% and an inhibition at 10 µM (SF-268) of 24%. It also gave an inhibition at 10 µM (786-0) of 18%, an inhibition at 10 µM (OVCAR-8) of 11% and an inhibition at 10 µM (NCI-H460) of 7%. For the same compound, the inhibition at 10 µM (UACC-62) was 5%, the inhibition at 10 µM (HOP-92) was 27% and the inhibition at 10 µM (HCT-15) was 13%. It also gave an inhibition at 10 µM (SW-620) of 12%, an inhibition at 10 µM (CCRF-CEM) of 15% and an inhibition at 10 µM (HCC-2998) of 0%. For the same compound, the inhibition at 10 µM (EKVX) was 37% and the inhibition at 10 µM (NCI-H226) was 62%.

With `O=C1C(Nc2ccc(I)cc2)=CC(c2ccccc2)N1c1ccc(I)cc1` (stereo not shown) [3a] the inhibition at 10 µM (MOLT-4) was 2%, the inhibition at 10 µM (SK-MEL-2) was 26% and the inhibition at 10 µM (SF-268) was 16%. It also gave an inhibition at 10 µM (786-0) of 17%, an inhibition at 10 µM (OVCAR-8) of 15% and an inhibition at 10 µM (NCI-H460) of 1%. The inhibition at 10 µM (UACC-62) was 0%, the inhibition at 10 µM (HOP-92) was 0% and the inhibition at 10 µM (HCT-15) was 19%. For the same compound, the inhibition at 10 µM (SW-620) was 0%, the inhibition at 10 µM (CCRF-CEM) was 4% and the inhibition at 10 µM (HCC-2998) was 0%. The inhibition at 10 µM (EKVX) was 37% and the inhibition at 10 µM (NCI-H226) was 4%.

For `O=C1C(Nc2ccc(I)cc2)=CC(c2ccc(O)cc2)N1c1ccc(I)cc1` (stereo not shown) [3g], the inhibition at 10 µM (MOLT-4) was 100%, the inhibition at 10 µM (SK-MEL-2) was 56% and the inhibition at 10 µM (SF-268) was 35%. The inhibition at 10 µM (OVCAR-8) was 31%, the inhibition at 10 µM (NCI-H460) was 69% and the inhibition at 10 µM (UACC-62) was 33%. It also gave an inhibition at 10 µM (HOP-92) of 66%, an inhibition at 10 µM (HCT-15) of 84% and an inhibition at 10 µM (SW-620) of 56%. The inhibition at 10 µM (CCRF-CEM) was 94%, the inhibition at 10 µM (HCC-2998) was 53% and the “GI (%)” value (SF-295) was 48%. For the same compound, the “GI (%)” value (BT-549) was 54%, the “GI (%)” value (U251) was 29% and the “GI (%)” value (HOP-62) was 5%. For the same compound, the “GI (%)” value (MDA-MB-468) was 96%, the “GI (%)” value (UO-31) was 54% and the inhibition at 10 µM (EKVX) was 64%. For the same compound, the inhibition at 10 µM (NCI-H226) was 47%.

With `O=C1C(Nc2ccc(I)cc2)=CC(c2cc(C(F)(F)F)cc(C(F)(F)F)c2)N1c1ccc(I)cc1` (stereo not shown) [3f] the inhibition at 10 µM (MOLT-4) was 89%, the inhibition at 10 µM (SK-MEL-2) was 35% and the inhibition at 10 µM (SF-268) was 21%. For the same compound, the inhibition at 10 µM (786-0) was 29%, the inhibition at 10 µM (OVCAR-8) was 26% and the inhibition at 10 µM (NCI-H460) was 35%. It also gave an inhibition at 10 µM (UACC-62) of 0%, an inhibition at 10 µM (HOP-92) of 19% and an inhibition at 10 µM (HCT-15) of 17%. It also gave an inhibition at 10 µM (SW-620) of 20%, an inhibition at 10 µM (CCRF-CEM) of 100% and an inhibition at 10 µM (HCC-2998) of 2%. It also gave an inhibition at 10 µM (EKVX) of 35% and an inhibition at 10 µM (NCI-H226) of 81%.
